# Test results published in ChEMBL document CHEMBL3885881, “DrugMatrix”.
# “And” between values parts separate entries of the source, which are not always exact repeats. Equal entries are not always repeated.
# Species: Rattus norvegicus
# Assay: DrugMatrix - Regimen: Daily Repeat
# Assay type: toxicity, organism-based, Sprague-Dawley
# Set-up: regimen Daily Repeat, gender Male, age 6-8 weeks
# Conditions: in vivo, ip, route intraperitoneal, vehicle 100 % SALINE; for ABSOLUTE BASOPHIL / ABSOLUTE EOSINOPHIL / ABSOLUTE LYMPHOCYTE / ABSOLUTE MONOCYTE / ABSOLUTE SEGMENTED NEUTROPHIL / BASOPHIL / EOSINOPHIL / ERYTHROCYTE COUNT / HEMATOCRIT / HEMOGLOBIN / LEUKOCYTE COUNT / LYMPHOCYTE / MEAN CORPUSCULAR HEMOGLOBIN / MEAN CORPUSCULAR HEMOGLOBIN CONCENTRATION / MEAN CORPUSCULAR VOLUME / MONOCYTE / NEUTROPHIL / PLATELET COUNT: tissue Blood; for ALANINE AMINOTRANSFERASE / ALBUMIN / ALKALINE PHOSPHATASE / ASPARTATE AMINOTRANSFERASE / BLOOD UREA NITROGEN / CARBON DIOXIDE / CHLORIDE / CHOLESTEROL / CREATINE PHOSPHOKINASE / CREATININE / GLUCOSE / LACTATE DEHYDROGENASE / LIPASE / PHOSPHORUS / POTASSIUM / SODIUM / TOTAL BILIRUBIN / TOTAL PROTEIN / URIC ACID: tissue Plasma
# [1] = 0 mg/kg, 120 h, dose level Control, time 5 day
# [2] = 0 mg/kg, […], dose level Control, time 14 day
# [3] = 0 mg/kg, […], dose level Control, time 28 day
# [4] = 40 mg/kg, 120 h, dose level High, time 5 day
# [5] = 40 mg/kg, […], dose level High, time 14 day
# [6] = 40 mg/kg, […], dose level High, time 28 day
smiles,measurement,setting,value
NC[C@H]1O[C@H](O[C@H]2[C@H](O)[C@@H](O[C@H]3O[C@H](CO)[C@@H](O)[C@H](N)[C@H]3O)[C@H](N)C[C@@H]2N)[C@H](N)C[C@@H]1O [TOBRAMYCIN],ABSOLUTE BASOPHIL,[1],32 cells/µL
same,ABSOLUTE EOSINOPHIL,[1],110 cells/µL
same,ABSOLUTE LYMPHOCYTE,[1],6630 cells/µL
same,ABSOLUTE MONOCYTE,[1],140 cells/µL
same,ABSOLUTE SEGMENTED NEUTROPHIL,[1],1170 cells/µL
same,BASOPHIL,[1],0.38% and 0.35%
same,EOSINOPHIL,[1],1.28% and 0.62%
same,ERYTHROCYTE COUNT,[1],7.45 x10E6/uL and 7.26 x10E6/uL
same,HEMATOCRIT,[1],45.74% and 47.97%
same,HEMOGLOBIN,[1],14.72 G/DL and 15.38 G/DL
same,LEUKOCYTE COUNT,[1],8.11 x10E3/uL and 8.68 x10E3/uL
same,LYMPHOCYTE,[1],81.3% and 86.77%
same,MEAN CORPUSCULAR HEMOGLOBIN,[1],19.76 pg and 21.18 pg
same,MEAN CORPUSCULAR HEMOGLOBIN CONCENTRATION,[1],32.16 G/DL and 32.05 G/DL
same,MEAN CORPUSCULAR VOLUME,[1],61.38 fL and 66.15 fL
same,MONOCYTE,[1],1.76% and 1.57%
same,NEUTROPHIL,[1],14.9% and 9.53%
same,PLATELET COUNT,[1],1322.4 x10E3/uL and 1786 x10E3/uL
same,ALANINE AMINOTRANSFERASE,[1],25.8 u/L and 20.5 u/L
same,ALBUMIN,[1],3.64 G/DL and 4.35 G/DL
same,ALKALINE PHOSPHATASE,[1],233.6 u/L and 300 u/L
same,ASPARTATE AMINOTRANSFERASE,[1],81.4 u/L and 86.75 u/L
same,BLOOD UREA NITROGEN,[1],14.4 mg/dL and 17 mg/dL
same,CARBON DIOXIDE,[1],29 mmol/L
same,CHLORIDE,[1],105.6 MEQ/L and 106.25 MEQ/L
same,CHOLESTEROL,[1],69.2 mg/dL and 51.25 mg/dL
same,CREATINE PHOSPHOKINASE,[1],384.75 u/L
same,CREATININE,[1],0.56 mg/dL and 0.47 mg/dL
same,GLUCOSE,[1],125.4 mg/dL and 128.75 mg/dL
same,LACTATE DEHYDROGENASE,[1],105.4 u/L and 145 u/L
same,LIPASE,[1],22.4 u/L and 13.25 u/L
same,PHOSPHORUS,[1],11.48 mg/dL and 11.8 mg/dL
same,POTASSIUM,[1],5.52 MEQ/L and 6.58 MEQ/L
same,SODIUM,[1],147 MEQ/L and 151 MEQ/L
same,TOTAL BILIRUBIN,[1],0.2 mg/dL and 0.33 mg/dL
same,TOTAL PROTEIN,[1],6.1 G/DL and 6.53 G/DL
same,URIC ACID,[1],1.06 mg/dL and 1.95 mg/dL
same,ABSOLUTE BASOPHIL,[2],130 cells/µL
same,ABSOLUTE EOSINOPHIL,[2],140 cells/µL
same,ABSOLUTE LYMPHOCYTE,[2],13500 cells/µL
same,ABSOLUTE MONOCYTE,[2],400 cells/µL
same,ABSOLUTE SEGMENTED NEUTROPHIL,[2],2330 cells/µL
same,HEMATOCRIT,[2],45.98%
same,ABSOLUTE BASOPHIL,[3],91 cells/µL
same,ABSOLUTE EOSINOPHIL,[3],110 cells/µL
same,ABSOLUTE LYMPHOCYTE,[3],9910 cells/µL
same,ABSOLUTE MONOCYTE,[3],210 cells/µL
same,ABSOLUTE SEGMENTED NEUTROPHIL,[3],1560 cells/µL
same,BASOPHIL,[3],0.77%
same,EOSINOPHIL,[3],0.92%
same,ERYTHROCYTE COUNT,[3],8.21 x10E6/uL
same,HEMATOCRIT,[3],47.53%
same,HEMOGLOBIN,[3],15.65 G/DL
same,LEUKOCYTE COUNT,[3],11.91 x10E3/uL
same,LYMPHOCYTE,[3],83.34%
same,MEAN CORPUSCULAR HEMOGLOBIN,[3],19.07 pg
same,MEAN CORPUSCULAR HEMOGLOBIN CONCENTRATION,[3],32.93 G/DL
same,MEAN CORPUSCULAR VOLUME,[3],57.9 fL
same,MONOCYTE,[3],1.68%
same,NEUTROPHIL,[3],12.97%
same,PLATELET COUNT,[3],1323.8 x10E3/uL
same,CARBON DIOXIDE,[2],25 mmol/L
same,ALANINE AMINOTRANSFERASE,[3],30 u/L
same,ALBUMIN,[3],3.71 G/DL
same,ALKALINE PHOSPHATASE,[3],186.8 u/L
same,ASPARTATE AMINOTRANSFERASE,[3],78.2 u/L
same,BLOOD UREA NITROGEN,[3],14.2 mg/dL
same,CHLORIDE,[3],105.4 MEQ/L
same,CHOLESTEROL,[3],44.9 mg/dL
same,CREATINE PHOSPHOKINASE,[3],334.3 u/L
same,CREATININE,[3],0.6 mg/dL
same,GLUCOSE,[3],147.2 mg/dL
same,LACTATE DEHYDROGENASE,[3],123.1 u/L
same,LIPASE,[3],9.6 u/L
same,PHOSPHORUS,[3],10.01 mg/dL
same,POTASSIUM,[3],6.57 MEQ/L
same,SODIUM,[3],149.5 MEQ/L
same,TOTAL BILIRUBIN,[3],0.21 mg/dL
same,TOTAL PROTEIN,[3],6.66 G/DL
same,URIC ACID,[3],1.26 mg/dL
same,ABSOLUTE BASOPHIL,[4],78 cells/µL
same,ABSOLUTE EOSINOPHIL,[4],120 cells/µL
same,ABSOLUTE LYMPHOCYTE,[4],8040 cells/µL
same,ABSOLUTE MONOCYTE,[4],210 cells/µL
same,ABSOLUTE SEGMENTED NEUTROPHIL,[4],920 cells/µL
same,BASOPHIL,[4],0.78% and 0.42%
same,EOSINOPHIL,[4],1.32% and 0.7%
same,ERYTHROCYTE COUNT,[4],7.61 x10E6/uL and 7.29 x10E6/uL
same,HEMATOCRIT,[4],45.66% and 46.27%
same,HEMOGLOBIN,[4],15.22 G/DL and 14.92 G/DL
same,LEUKOCYTE COUNT,[4],9.41 x10E3/uL and 6.74 x10E3/uL
same,LYMPHOCYTE,[4],84.78% and 87.65%
same,MEAN CORPUSCULAR HEMOGLOBIN,[4],20.04 pg and 20.48 pg
same,MEAN CORPUSCULAR HEMOGLOBIN CONCENTRATION,[4],33.38 G/DL and 32.25 G/DL
same,MEAN CORPUSCULAR VOLUME,[4],60.02 fL and 63.45 fL
same,MONOCYTE,[4],2.34% and 1.52%
same,NEUTROPHIL,[4],10.36% and 8.62%
same,PLATELET COUNT,[4],1436.6 x10E3/uL and 1523 x10E3/uL
same,ALANINE AMINOTRANSFERASE,[4],32.4 u/L and 20.5 u/L
same,ALBUMIN,[4],3.42 G/DL and 4.17 G/DL
same,ALKALINE PHOSPHATASE,[4],217.6 u/L and 314.25 u/L
same,ASPARTATE AMINOTRANSFERASE,[4],80.2 u/L and 91.75 u/L
same,BLOOD UREA NITROGEN,[4],14.8 mg/dL and 15.25 mg/dL
same,CARBON DIOXIDE,[4],25.75 mmol/L
same,CHLORIDE,[4],109.8 MEQ/L and 108.25 MEQ/L
same,CHOLESTEROL,[4],58.4 mg/dL and 56 mg/dL
same,CREATINE PHOSPHOKINASE,[4],257.6 u/L and 601.5 u/L
same,CREATININE,[4],0.52 mg/dL and 0.5 mg/dL
same,GLUCOSE,[4],127.2 mg/dL and 121.75 mg/dL
same,LACTATE DEHYDROGENASE,[4],84.6 u/L and 185.75 u/L
same,LIPASE,[4],17 u/L and 8.25 u/L
same,PHOSPHORUS,[4],10.22 mg/dL and 12.03 mg/dL
same,POTASSIUM,[4],6.26 MEQ/L and 5.68 MEQ/L
same,SODIUM,[4],151.2 MEQ/L and 152 MEQ/L
same,TOTAL BILIRUBIN,[4],0.14 mg/dL and 0.3 mg/dL
same,TOTAL PROTEIN,[4],5.84 G/DL and 6.38 G/DL
same,URIC ACID,[4],0.98 mg/dL and 1.82 mg/dL
same,ABSOLUTE BASOPHIL,[5],120 cells/µL
same,ABSOLUTE EOSINOPHIL,[5],60 cells/µL
same,ABSOLUTE LYMPHOCYTE,[5],7970 cells/µL
same,ABSOLUTE MONOCYTE,[5],180 cells/µL
same,ABSOLUTE SEGMENTED NEUTROPHIL,[5],970 cells/µL
same,ABSOLUTE BASOPHIL,[6],110 cells/µL
same,ABSOLUTE EOSINOPHIL,[6],140 cells/µL
same,ABSOLUTE LYMPHOCYTE,[6],11000 cells/µL
same,ABSOLUTE MONOCYTE,[6],270 cells/µL
same,ABSOLUTE SEGMENTED NEUTROPHIL,[6],2010 cells/µL
same,BASOPHIL,[6],0.75%
same,EOSINOPHIL,[6],1.01%
same,ERYTHROCYTE COUNT,[6],8.16 x10E6/uL
same,HEMATOCRIT,[6],47.35%
same,HEMOGLOBIN,[6],15.56 G/DL
same,LEUKOCYTE COUNT,[6],13.61 x10E3/uL
same,LYMPHOCYTE,[6],82.08%
same,MEAN CORPUSCULAR HEMOGLOBIN,[6],19.08 pg
same,MEAN CORPUSCULAR HEMOGLOBIN CONCENTRATION,[6],32.87 G/DL
same,MEAN CORPUSCULAR VOLUME,[6],58.02 fL
same,MONOCYTE,[6],1.93%
same,NEUTROPHIL,[6],13.77%
same,PLATELET COUNT,[6],1300.9 x10E3/uL
same,CARBON DIOXIDE,[5],24 mmol/L
same,ALANINE AMINOTRANSFERASE,[6],28.5 u/L
same,ALBUMIN,[6],3.56 G/DL
same,ALKALINE PHOSPHATASE,[6],137.2 u/L
same,ASPARTATE AMINOTRANSFERASE,[6],79.3 u/L
same,BLOOD UREA NITROGEN,[6],16.3 mg/dL
same,CHLORIDE,[6],108.2 MEQ/L
same,CHOLESTEROL,[6],59.4 mg/dL
same,CREATINE PHOSPHOKINASE,[6],132.4 u/L
same,CREATININE,[6],0.68 mg/dL
same,GLUCOSE,[6],127.2 mg/dL
same,LACTATE DEHYDROGENASE,[6],83.6 u/L
same,LIPASE,[6],12.4 u/L
same,PHOSPHORUS,[6],8.3 mg/dL
same,POTASSIUM,[6],5.48 MEQ/L
same,SODIUM,[6],152.3 MEQ/L
same,TOTAL BILIRUBIN,[6],0.18 mg/dL
same,TOTAL PROTEIN,[6],6.53 G/DL
same,URIC ACID,[6],0.96 mg/dL
